Key:
[1] = Liver Microsome Stability Assay (mouse); details: mouse liver microsomes, with NADPH, 1.0 uM compound
Method: (§1) Stability of a compound was assessed in the presence of liver microsomes from various sources—mouse, rat, monkey and human liver microsomes. 1.0 uM compound, 0.4% DMSO in 0.1 M Potassium Phosphate with 1.0 mg/mL liver microsomes, were incubated at 37° C. with or without 1 mM NADPH. The samples were quenched at 0, and 30 minutes.

[2] = tested on: multiple myeloma cell line U266B1; test: U266 Cell Viability Assay; format: cell-based, human; details: Homo sapiens, U-266, 48 h, U266B1 cells, Celltiter-Glo
How it was run: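 After growth in serum-supplemented RPMI 1640, cells received serially diluted compound in DMSO/media and were kept 48 hours before a CellTiter-Glo luminescence readout.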

[3] = tested on: multiple myeloma cell line NCI-H929; test: H929 Cell Viability Assay; format: cell-based, human; details: Homo sapiens, NCI-H929, 48 h, NCI-H929 cells, Celltiter-Glo
How it was run: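 A 48-hour compound treatment of cells in 10% FBS RPMI medium was followed by luciferase-based viability quantification.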

[4] = Liver Microsome Stability Assay (monkey); details: monkey liver microsomes, with NADPH, 1.0 uM compound
Method: as §1

[5] = tested on: PD1-ss+10aa/Gaussia Luciferase; test: Dox-Induced PD1-ss-Gluc Assay; format: cell-based; details: 24 hr Dox induction; 293FRT/TO cells; mean; read-out: 24 hr Dox Inducible PD1ssGluc 293FRT/TO: Mean IC50
How it was run: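 Flp-In 293 T-REx, stable line; Tet-regulated PD1-ss+10aa fused to Gaussia luciferase; plated day prior; cpd + doxycycline in DMSO/media; 37 °C, 5% CO2.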

[6] = tested on: IL-2-FL/Gaussia Luciferase; test: Dox Induced IL2-FL-Gluc Assay; format: cell-based; details: for IC50: 24 hr Dox induction, 293FRT/TO cells, mean, read-out: 24 hr Dox Inducible IL2FLGluc 293FRT/TO: Mean IC50; for 24 hr Dox Inducible IL2FLGluc 293FRT/TO: IL2/PD1: ratio of IL2FLGluc IC50 to PD1ssGluc IC50, '<=>' given where both are I.A.
How it was run: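 A hygromycin- and blasticidin-resistant 293 T-REx clone carrying inducible IL-2–Gaussia luciferase (full-length IL-2, residues 1-153) serves as the cell system. After overnight plating, the cells get test compounds together with doxycycline in DMSO/media and are incubated at 37° C, 5% CO2.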

[7] = Liver Microsome Stability Assay (rat); details: rat liver microsomes, with NADPH, 1.0 uM compound
Method: as §1

[8] = tested on: HER3-ss+4aa/Gaussia Luciferase; test: Dox-Induced Her3-ss-Gluc Assay; format: cell-based; details: 24 hr Dox induction; 293FRT/TO cells; mean; read-out: 24 hr Dox Inducible Her3(ss + 4)Gluc 293FRT/TO: Mean IC50
How it was run: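 Doxycycline-inducible HER3 signal sequence+4aa/Gaussia luciferase construct, stably integrated in Flp-In 293 T-REx cells; compound dilutions applied with doxycycline at 37° C., 5% CO2.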

[9] = tested on: TNFα-FL/Gaussia Luciferase; test: Dox Induced TNFα-FL-Gluc Assay; format: cell-based; details: for IC50: 24 hr Dox induction, 293FRT/TO cells, mean, read-out: 24 hr Dox Inducible TNFaFLGluc 293FRT/TO: Mean IC50; for 24 hr Dox Inducible TNFaFLGluc 293FRT/TO: TNF/PD1: ratio of TNFaFLGluc IC50 to PD1ssGluc IC50, '<=>' given where both are I.A.
How it was run: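 Hygromycin/blasticidin-selected Flp-In 293 T-REx cells, TNFα-FL/Gaussia luciferase fusion under T-REx control; overnight plating, then compound in DMSO/media with doxycycline at 37 °C, 5% CO2; stereo-undefined structures tested as mixtures.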

[10] = Liver Microsome Stability Assay (human); details: human liver microsomes, with NADPH, 1.0 uM compound
Method: as §1

SMILES: COc1ccc(O[C@H]2CCC[C@H](c3csc(NC(=O)c4cccn4Cc4ccncc4)n3)C2)nc1 [Compound E41, N-(4-((1S,3S)-3-((5-methoxypyridin-2-yl)oxy)cyclohexyl)thiazol-2-yl)-1-(pyridin-4-ylmethyl)-1H-pyrrole-2-carboxamide]
- Liver Microsome Stability (Multiple Species): Mouse - % Remaining after 30 min w/NADPH [1]: 0.41%
- EC50 [2]: 14.4 µM
- EC50 [3]: 7.74 µM
- Liver Microsome Stability (Multiple Species): Monkey - % Remaining after 30 min w/NADPH [4]: 0.34%
- IC50 [5]: 0.301 µM
- IC50 [6]: 0.538 µM
- 24 hr Dox Inducible IL2FLGluc 293FRT/TO: IL2/PD1 [6]: 1.8
- Liver Microsome Stability (Multiple Species): Rat - % Remaining after 30 min w/NADPH [7]: 0.61%
- IC50 [8]: 0.57 µM
- IC50 [9]: 1.56 µM
- 24 hr Dox Inducible TNFaFLGluc 293FRT/TO: TNF/PD1 [9]: 5.2
- Liver Microsome Stability (Multiple Species): Human - % Remaining after 30 min w/NADPH [10]: 0.33%

SMILES: COc1ccc(O[C@@H]2CC[C@H](c3csc(NC(=O)c4cccn4Cc4ccncc4)n3)C2)nc1 [Compound E42, N-(4-((1S,3R)-3-((5-methoxypyridin-2-yl)oxy)cyclopentyl)thiazol-2-yl)-1-(pyridin-4-ylmethyl)-1H-pyrrole-2-carboxamide]
- Liver Microsome Stability (Multiple Species): Mouse - % Remaining after 30 min w/NADPH [1]: 0.18%
- EC50 [2]: > 25 µM
- EC50 [3]: 17.3 µM
- Liver Microsome Stability (Multiple Species): Monkey - % Remaining after 30 min w/NADPH [4]: 0.26%
- IC50 [5]: 0.473 µM
- IC50 [6]: 2.59 µM
- 24 hr Dox Inducible IL2FLGluc 293FRT/TO: IL2/PD1 [6]: 5.5
- Liver Microsome Stability (Multiple Species): Rat - % Remaining after 30 min w/NADPH [7]: 0.38%
- IC50 [8]: 1.12 µM
- IC50 [9]: 8.11 µM
- 24 hr Dox Inducible TNFaFLGluc 293FRT/TO: TNF/PD1 [9]: 17.2
- Liver Microsome Stability (Multiple Species): Human - % Remaining after 30 min w/NADPH [10]: 0.09%

SMILES: O=C(Nc1nc([C@@H]2CCN(c3ccccn3)C2)cs1)c1cccn1Cc1ccncc1 [Compound E43, (R)-N-(4-(1-(pyridin-2-yl)pyrrolidin-3-yl)thiazol-2-yl)-1-(pyridin-4-ylmethyl)-1H-pyrrole-2-carboxamide]
- Liver Microsome Stability (Multiple Species): Mouse - % Remaining after 30 min w/NADPH [1]: 0.5%
- EC50 [2]: 20.3 µM
- EC50 [3]: 16.7 µM
- Liver Microsome Stability (Multiple Species): Monkey - % Remaining after 30 min w/NADPH [4]: 0.35%
- IC50 [5]: 1.14 µM
- IC50 [6]: 10.9 µM
- 24 hr Dox Inducible IL2FLGluc 293FRT/TO: IL2/PD1 [6]: 9.6
- Liver Microsome Stability (Multiple Species): Rat - % Remaining after 30 min w/NADPH [7]: 0.9%
- IC50 [8]: 3.15 µM
- IC50 [9]: 21.4 µM
- 24 hr Dox Inducible TNFaFLGluc 293FRT/TO: TNF/PD1 [9]: 18.8
- Liver Microsome Stability (Multiple Species): Human - % Remaining after 30 min w/NADPH [10]: 0.28%

SMILES: O=C(Nc1nc([C@H]2CCN(c3ccccn3)C2)cs1)c1cccn1Cc1ccncc1 [Compound E44, (S)-N-(4-(1-(pyridin-2-yl)pyrrolidin-3-yl)thiazol-2-yl)-1-(pyridin-4-ylmethyl)-1H-pyrrole-2-carboxamide]
- Liver Microsome Stability (Multiple Species): Mouse - % Remaining after 30 min w/NADPH [1]: 0.24%
- EC50 [2]: > 25 µM
- EC50 [3]: 22.9 µM
- Liver Microsome Stability (Multiple Species): Monkey - % Remaining after 30 min w/NADPH [4]: 0.59%
- IC50 [5]: 0.453 µM
- IC50 [6]: 2.72 µM
- 24 hr Dox Inducible IL2FLGluc 293FRT/TO: IL2/PD1 [6]: 6
- Liver Microsome Stability (Multiple Species): Rat - % Remaining after 30 min w/NADPH [7]: 0.72%
- IC50 [8]: 1.32 µM
- IC50 [9]: 11.6 µM
- 24 hr Dox Inducible TNFaFLGluc 293FRT/TO: TNF/PD1 [9]: 25.5
- Liver Microsome Stability (Multiple Species): Human - % Remaining after 30 min w/NADPH [10]: 0.5%

SMILES: O=C(Nc1nc([C@H]2CCCN(c3ccccn3)C2)cs1)c1cccn1Cc1ccncc1 [Compound E45, (S)-N-(4-(1-(pyridin-2-yl)piperidin-3-yl)thiazol-2-yl)-1-(pyridin-4-ylmethyl)-1H-pyrrole-2-carboxamide]
- Liver Microsome Stability (Multiple Species): Mouse - % Remaining after 30 min w/NADPH [1]: 2.25%
- EC50 [2]: 14.3 µM
- EC50 [3]: 17.3 µM
- Liver Microsome Stability (Multiple Species): Monkey - % Remaining after 30 min w/NADPH [4]: 0.23%
- IC50 [5]: 0.531 µM
- IC50 [6]: 2.37 µM
- 24 hr Dox Inducible IL2FLGluc 293FRT/TO: IL2/PD1 [6]: 4.5
- Liver Microsome Stability (Multiple Species): Rat - % Remaining after 30 min w/NADPH [7]: 1.2%
- IC50 [8]: 1.45 µM
- IC50 [9]: 6.03 µM
- 24 hr Dox Inducible TNFaFLGluc 293FRT/TO: TNF/PD1 [9]: 11.4
- Liver Microsome Stability (Multiple Species): Human - % Remaining after 30 min w/NADPH [10]: 0.19%

SMILES: O=C(Nc1nc([C@H]2CCCN2c2cccnc2)cs1)c1cccn1Cc1ccncc1 [Compound E46, (R)-N-(4-(1-(pyridin-3-yl)pyrrolidin-2-yl)thiazol-2-yl)-1-(pyridin-4-ylmethyl)-1H-pyrrole-2-carboxamide]
- Liver Microsome Stability (Multiple Species): Mouse - % Remaining after 30 min w/NADPH [1]: 22.1%
- EC50 [2]: > 25 µM
- EC50 [3]: 3.65 µM
- Liver Microsome Stability (Multiple Species): Monkey - % Remaining after 30 min w/NADPH [4]: 0.6%
- IC50 [5]: 0.0291 µM
- IC50 [6]: 0.115 µM
- 24 hr Dox Inducible IL2FLGluc 293FRT/TO: IL2/PD1 [6]: 3.9
- Liver Microsome Stability (Multiple Species): Rat - % Remaining after 30 min w/NADPH [7]: 1.85%
- IC50 [8]: 0.0604 µM
- IC50 [9]: 0.529 µM
- 24 hr Dox Inducible TNFaFLGluc 293FRT/TO: TNF/PD1 [9]: 18.1
- Liver Microsome Stability (Multiple Species): Human - % Remaining after 30 min w/NADPH [10]: 7.36%

SMILES: O=C(Nc1nc([C@@H]2CCCN(c3ccccn3)C2)cs1)c1cccn1Cc1ccncc1 [Compound E47, (R)-N-(4-(1-(pyridin-2-yl)piperidin-3-yl)thiazol-2-yl)-1-(pyridin-4-ylmethyl)-1H-pyrrole-2-carboxamide]
- Liver Microsome Stability (Multiple Species): Mouse - % Remaining after 30 min w/NADPH [1]: 0.55%
- EC50 [2]: 13.9 µM
- EC50 [3]: 10.4 µM
- Liver Microsome Stability (Multiple Species): Monkey - % Remaining after 30 min w/NADPH [4]: 5.23%
- IC50 [5]: 0.547 µM
- IC50 [6]: 1.44 µM
- 24 hr Dox Inducible IL2FLGluc 293FRT/TO: IL2/PD1 [6]: 2.6
- Liver Microsome Stability (Multiple Species): Rat - % Remaining after 30 min w/NADPH [7]: 2.13%
- IC50 [8]: 1.43 µM
- IC50 [9]: 4.06 µM
- 24 hr Dox Inducible TNFaFLGluc 293FRT/TO: TNF/PD1 [9]: 7.43
- Liver Microsome Stability (Multiple Species): Human - % Remaining after 30 min w/NADPH [10]: 0.57%

SMILES: O=C(Nc1nc([C@H]2CCCN2c2ccncc2)cs1)c1cccn1Cc1ccncc1 [Compound E48, (R)-N-(4-(1-(pyridin-4-yl)pyrrolidin-2-yl)thiazol-2-yl)-1-(pyridin-4-ylmethyl)-1H-pyrrole-2-carboxamide]
- Liver Microsome Stability (Multiple Species): Mouse - % Remaining after 30 min w/NADPH [1]: 2.74%
- EC50 [2]: > 25 µM
- EC50 [3]: > 25 µM
- Liver Microsome Stability (Multiple Species): Monkey - % Remaining after 30 min w/NADPH [4]: 0.12%
- IC50 [5]: 7.89 µM
- IC50 [6]: 7.83 µM
- 24 hr Dox Inducible IL2FLGluc 293FRT/TO: IL2/PD1 [6]: 0.99
- Liver Microsome Stability (Multiple Species): Rat - % Remaining after 30 min w/NADPH [7]: 0.45%
- IC50 [8]: 13.5 µM
- IC50 [9]: > 25 µM
- 24 hr Dox Inducible TNFaFLGluc 293FRT/TO: TNF/PD1 [9]: >3.17
- Liver Microsome Stability (Multiple Species): Human - % Remaining after 30 min w/NADPH [10]: 0.93%

SMILES: O=C(NC1=NC(CCc2ccccc2)CS1)c1cccn1Cc1ccncc1 (centres unmarked) [Compound E50]
- Liver Microsome Stability (Multiple Species): Mouse - % Remaining after 30 min w/NADPH [1]: 0.23%
- EC50 [2]: > 25 µM
- EC50 [3]: > 25 µM
- Liver Microsome Stability (Multiple Species): Monkey - % Remaining after 30 min w/NADPH [4]: 0.08%
- IC50 [5]: 1.96 µM
- IC50 [6]: 5.56 µM
- 24 hr Dox Inducible IL2FLGluc 293FRT/TO: IL2/PD1 [6]: 2.8
- Liver Microsome Stability (Multiple Species): Rat - % Remaining after 30 min w/NADPH [7]: 0.64%
- IC50 [8]: 4.37 µM
- IC50 [9]: > 25 µM
- 24 hr Dox Inducible TNFaFLGluc 293FRT/TO: TNF/PD1 [9]: >12.8
- Liver Microsome Stability (Multiple Species): Human - % Remaining after 30 min w/NADPH [10]: 0.06%

SMILES: O=C(NC1=NC(/C=C/c2ccccc2)CS1)c1cccn1Cc1ccncc1 (centres unmarked) [Compound E51]
- Liver Microsome Stability (Multiple Species): Mouse - % Remaining after 30 min w/NADPH [1]: 0.08%
- EC50 [2]: > 25 µM
- EC50 [3]: > 25 µM
- Liver Microsome Stability (Multiple Species): Monkey - % Remaining after 30 min w/NADPH [4]: 0.06%
- IC50 [5]: > 25 µM
- IC50 [6]: > 25 µM
- 24 hr Dox Inducible IL2FLGluc 293FRT/TO: IL2/PD1 [6]: 1
- Liver Microsome Stability (Multiple Species): Rat - % Remaining after 30 min w/NADPH [7]: 0.98%
- IC50 [8]: > 25 µM
- IC50 [9]: > 25 µM
- Liver Microsome Stability (Multiple Species): Human - % Remaining after 30 min w/NADPH [10]: 0.01%
